Our source for the activity coefficient values is the NIST ThermoML archive (doi:10.1016/j.fluid.2013.06.028).

Numbers after ± are expanded uncertainties.

A short description of this series: activity coefficient (dimensionless); of the first substance listed, at infinite dilution; xn = mol fraction of the nth substance listed. The note with it: 298 K; Liquid; Chromatography; x1 = 0.
Turning to `c1ccc2ccccc2c1` [naphthalene] + OCCO, the activity coefficient came out at 238 ± 51. On to `Clc1ccccc1` [chlorobenzene] + OCCO, for which the activity coefficient is 40 ± 8. As for `Ic1ccccc1` [iodobenzene] + OCCO, the figure is 42 ± 10. `Cc1ccccc1` [toluene] + OCCO: the activity coefficient is 93 ± 12. To `Brc1ccccc1` [bromobenzene] + OCCO belongs 45 ± 10; to `c1ccccc1` [benzene] + OCCO, 32 ± 6; to `Fc1ccccc1` [fluorobenzene] + OCCO, 32 ± 10.
